Test results published in PMC12562781 (International Journal of Molecular Sciences, 2025).
Converted amounts (≈) assume the structure as drawn. Where two headings read alike, the source gives them in different places.

Assays:
[1] = system: breast adenocarcinoma cancer cell lines (MDA); assay: MTT cytotoxicity assay, MDA cells; details: Homo sapiens, 24 h, read-out: IC50 Values, cytotoxicity, MDA
Experimental: (§1) The cells were allowed to grow to 90% confluency in an incubator set at 37 °C containing 5% CO2, before they were trypsinized and cultured in 96-well tissue culture plates. Stock and final concentrations of the compounds were prepared in the culture media.
(§2) Just 5 h before the elapse of 24 h, 10 µL of 5 mg/mL MTT solution was added to each well, and the plates were further incubated. At the end of the incubation period, the media was removed from each well and replaced with 50 µL of DMSO. The plates were shaken on a rotating shaker for 10 min before taking readings at 560 nm using a microplate reader (Elisa Plate Reader, BioTek Instruments, Inc., Winooski, VT, USA). […] IC50 values were calculated from the graphs as compound concentrations that reduced the absorbance at 560 nm by 50% of the untreated control wells. To exclude background readings, three wells were seeded with untreated cells in which MTT was not added. Assays were performed in triplicate to ensure reproducibility. The percentage inhibitions of cell proliferation were calculated using the following formula:% Cytotoxicity = ((A − B)/A) × 100 where: A is the absorbance of the negative control (untreated cells). B is the absorbance of the treated cells.
(§3) Data were presented as the cumulative mean of each compound. Each compound was run in triplicate. GraphPad Prism (version 5) was used for statistical analysis of all data. For all the data, one-way analysis of variance (ANOVA) followed by Bonferroni’s multiple comparison tests was used to compare the means of one group with every other group. Statistical significance was set at 5%; thus, a p-value ≤ 0.05 was considered significant. Concentrations that inhibit cell proliferation by 50% (IC50) were calculated using Graphpad Prism 5 software.

[2] = MTT cytotoxicity assay, KMST-6 cells; assay type: cell-based, human; details: human
Experimental: (§4) Assays were performed in triplicate to ensure reproducibility. […] B is the absorbance of the treated cells.
(§5) Each compound was run in triplicate.

[3] = system: human liver cancer cell lines (HepG2); assay: MTT cytotoxicity assay, HepG2 cells; details: HepG2, 24 h, read-out: IC50 Values, cytotoxicity, HepG2
Experimental: as §1, §2, §3

HL60 cells = system: HL60 cells; parameters: method as in doi:10.1007/s00044-014-1093-y; details: cited from earlier work
Funtumia africana = system: Funtumia africana; parameters: method as in earlier work; details: cited from earlier work
[4] = system: Vero cells and human liver cancer cells; parameters: method as in earlier work; details: cited from earlier work
[5] = system: human breast cancer cells (MDA-MB-231); parameters: method as in PMID 28231262; details: cited from earlier work
Plasmodium = system: Plasmodium; parameters: method as in PMID 24108397; details: cited from earlier work
[6] = system: non-cancerous human fibroblast cell lines (KMST-6); assay: MTT cytotoxicity assay, KMST-6 cells; assay type: cell-based; details: MTT, 24 h, 0.156 µM to 10 µM, triplicate; non-cancerous cells
Experimental: as §4, §5

[7] = system: human prostate cancer cell lines (PC3); assay: MTT cytotoxicity assay, PC3 cells
Experimental: as §1, §2
Data were presented as the cumulative mean of each compound. Each compound was run in triplicate. GraphPad Prism (version 5) was used for statistical analysis of all data. […]

MDA-MB-231 = details: cited from earlier work
HeLa cells = system: HeLa cells; parameters: method as in PMID 24658565; details: read-out: cytotoxic IC50, HeLa; cited from earlier work
HT-29 cells = system: HT-29 cells; parameters: method as in PMID 24658565; details: read-out: cytotoxic IC50, HT-29; cited from earlier work
MCF-7 cells = system: MCF-7 cells; parameters: method as in PMID 24658565; details: read-out: cytotoxic IC50, MCF-7; cited from earlier work
Plasmodium berghei = system: Plasmodium berghei; parameters: method as in PMID 24108397; details: mice; cited from earlier work
HEK293 = system: HEK293; parameters: method as in PMID 24108397; details: cited from earlier work
HepG2 = system: HepG2; parameters: method as in PMID 24108397; details: cited from earlier work
Hep-G2 = details: cited from earlier work

COC(=O)[C@]12CC[C@@H](C)[C@H](C)[C@H]1C1=CC[C@@H]3[C@@]4(C)CC[C@H](O)C(C)(C)[C@@H]4CC[C@@]3(C)[C@]1(C)CC2 [Compound 4, ursolic-28-methylate]
IC50 [1]: 2.48 µM
IC50 at 24 h [2]: > 5 µM
IC50 [3]: 1.6 µM
ED50, HL60 (HL60 cells): 22.7 µg/mL (≈ 48.2 µM)
MIC (Funtumia africana): 62.5 µg/mL (≈ 133 µM)
cytotoxicity IC50 [4]: 10.4 µg/mL

CC1(C)CC[C@]2(C(=O)O)CC[C@]3(C)C(=CC[C@@H]4[C@@]5(C)CC[C@H](O)C(C)(C)[C@@H]5CC[C@]43C)[C@@H]2C1 [Compound 2, oleanolic acid]
IC50 [1]: 4.48 µM
IC50 at 24 h ([2]; KMST-6 non-cancerous fibroblast cells, MTT, 24 h, 0.156 µM to 10 µM, triplicate, non-cancerous cells, read-out: IC50 Values, cytotoxicity, KMST-6): 3.88 µM
IC50 [3]: 1.2 µM
effect on cell migration [5]: clearly enhanced cell migration

COC(=O)[C@]12CC[C@@H](C)[C@H](C)C1C1=CCC3[C@@]4(C)CC[C@H](OC(C)=O)C(C)(C)C4CC[C@@]3(C)[C@]1(C)CC2 (some centres unmarked) [Compound 5, 3-acetylursolic-methylate]
IC50 [1]: 1.9 µM
IC50 at 24 h [2]: > 5 µM
IC50 [3]: 0.85 µM

COC1CCC2(C)C3CCC4(C)C(=CCC5(C)CCC(C)(C)CC54)C3(C)CCC2C1(C)C (centres unmarked) [sawamilletin]
anti-plasmodial IC50 (Plasmodium; unit not given): > 100

CC1(C)CC[C@]2(C)CC=C3[C@]4(C)CC[C@H]5C(C)(C)[C@@H](O)CC[C@]5(C)[C@H]4CC[C@@]3(C)[C@@H]2C1 [taraxerol]
anti-plasmodial IC50 (Plasmodium; unit not given): > 100

C[C@H]1[C@H](C)CC[C@]2(C(=O)O)CC[C@]3(C)C(=CC[C@@H]4[C@@]5(C)CC[C@H](O)C(C)(C)[C@@H]5CC[C@]43C)[C@H]12 [Compound 1, ursolic acid]
IC50 [1]: > 5 µM
IC50 Values, cytotoxicity, KMST-6 [6]: ns
IC50 [3]: 0.261 µM
IC50 ([7]; read-out: IC50 Values, cytotoxicity, PC3, MTT, 24 h, 0.156 µM to 10 µM, triplicate): 0.262 µM
anti-plasmodial IC50 (Plasmodium): 6.8 µg/mL
concentration that inhibits cell proliferation (MDA-MB-231): ≥ 160 µg/mL
IC50 (HeLa cells): 10 µM
IC50 (HT-29 cells): 10 µM
IC50 (MCF-7 cells): 20 µM

CC(=O)O[C@H]1CC[C@]2(C)[C@H]3CC=C4[C@@H]5[C@@H](C)[C@H](C)CC[C@]5(C(=O)O)CC[C@@]4(C)[C@]3(C)CC[C@H]2C1(C)C [Compound 3, 3-O-acetyl ursolic acid]
IC50 [1]: 3.93 µM
IC50 at 24 h [2]: 4.88 µM
IC50 [3]: 0.85 µM
IC50 Values, cytotoxicity, PC3 [7]: ns
decrease of parasitemia (Plasmodium berghei): 94.01%
cytotoxicity IC50, HEK293 (HEK293): 366.00 µg/mL
cytotoxicity IC50, HepG2 (HepG2): 566.09 µg/mL
cytotoxicity IC50, Hep-G2 (Hep-G2): 4.73 µg/mL
